# Measured values as given in US10071129B2, “Method for identifying bromodomain inhibitors” (WHITEHEAD INSTITUTE FOR BIOMEDICAL RESEARCH DANA-FARBER …, priority 2011, dated 2018).
# Key:
# multiple myeloma cells = test: Antiproliferative effect of JQ1 treatment in multiple myeloma cells; assay type: cell-based; settings: multiple myeloma cells treated with JQ1
# Description: (§1) To test BET bromodomain inhibitors as a strategy to downregulate the cMyc transcriptional network and the mechanism of downregulation, multiple myeloma cells were treated with JQ1.
# cMyc = cMyc protein levels after JQ1 treatment of multiple myeloma cells; assay type: cell-based; settings: multiple myeloma cells treated with JQ1
# Description: as §1
# cMyc target genes = test: Genome-wide expression of cMyc target genes and MYC transcription after JQ1 treatment; assay type: cell-based
# Description: as §1
# BRD4 = BRD4 (Homo sapiens, UniProt O60885); settings: MM.1S cells, 500 nM, 24 hours
# Description: Approximately 1×10^8 MM1S cells were treated with 500 nM JQ1 or DMSO for 24 hours and crosslinked with 1.1% formaldehyde (10× crosslink solution contains 11% formaldehyde, 50 mM Hepes pH7.3, 100 mM NaCl, 1 mM EDTA p118.0, 0.5 mM EGTA pH8.0) to the growth media followed by two washes with PBS. Cells were scraped and frozen in liquid nitrogen. Brd4 ChIP-PCR analysis was done on these cells following the protocol in Rahl et al. Cell 2010. In brief, 75 ul of Dynal magnetic beads (Sigma) were blocked with 0.5% BSA (w/v) in PBS. Magnetic beads were bound with 6.25 ug of Brd4 antibody (Bethyl Labs, A310-985A, lot A301-985A-1, FIG. 1A or Sigma, HPA015055-100, lot A31530, FIG. 1B). […]
# Brd4 ChIP and input DNA were analyzed using SYBR Green real-time PCR analysis (Applied Biosystems). […] Fold enrichment was determined from triplicate PCR reactions at five potential enhancer regions adjacent to the MYC gene in non-translocated cells (MYC_E1, MYC_E2, MYC_E3, MYC_E4, MYC_E5), the MYC transcriptional start site (MYC_TS1, MYC_TS2), IGH enhancer regions (IGH_E1, IGH_E2, IGH_E3, IGH_E4), and two negative regions upstream of the MYC enhancers (MYC_NR2, MYC_NR3) over input DNA using DDCt over the negative region MYC_NR1.
smiles,measurement,setting,value
"Cc1sc2c(c1C)C(c1ccc(Cl)cc1)=N[C@@H](CC(=O)OC(C)(C)C)c1nnc(C)n1-2 [JQ1, [(S)-4-(4-Chloro-phenyl)-2,3,9-trimethyl-6H-1-thia-5,7,8,9a-tetraaza-cyclopenta[e]azulen-6-yl]-acetic acid tert-butyl ester]",antiproliferative effect,multiple myeloma cells,potent antiproliferative effect
same,cMyc protein levels,cMyc,rapid downregulation of cMyc protein levels
same,MYC transcription,cMyc target genes; multiple myeloma cells treated with JQ1,early and sustained JQ1-induced suppression of MYC transcription
same,expression of cMyc target genes,"cMyc target genes; multiple myeloma cells treated with JQ1, genome-wide",genome-wide downregulation of cMyc target genes
same,BRD4 binding to IgH enhancers and the TSS (ChIP),BRD4,significantly depleted BRD4 binding to IgH enhancers and the TSS
